Measurements: publication PMC3443097, “Evolution of Bombesin Conjugates for Targeted PET Imaging of Tumors” (PLoS ONE, 2012)
Values belong to the molecule of their own block, whether it stands above or below them. Square brackets hold non-standard residues; d marks the D form. Peptide text beside a SMILES is read from it. * marks the point of attachment. CPTA = 4-(1,4,8,11-tetraazacyclotetradec-1-yl)-methyl benzoic acid chelator, O=C(c1ccc(CN2CCCNCCNCCCNCC2)cc1)*; DOTA = O=C(O)CN1CCN(CC(=O)O)CCN(CC(=O)*)CCN(CC(=O)O)CC1; Nle = CCCC[C@H](N)C(=O)O; GABA = NCCCC(=O)O; βAla = NCCC(=O)O

How the values were obtained:
human GRP receptor = target: T1, human GRP receptor (Homo sapiens, UniProt P30550); assay: Competitive binding vs [^125I-Tyr^4] BN, autoradiography of human prostate cancer tissue sections; conditions: displacement of [^125I-Tyr^4] BN, ± SD, number of independent studies in brackets
T1 construct: in vitro autoradiography of sections of human prostate cancer tissue overexpressing GRP receptors; from tissue; host or cells: human prostate cancer tissue sections (patient samples, Institute of Pathology, University of Berne)
T1 sequence (P30550 whole entry): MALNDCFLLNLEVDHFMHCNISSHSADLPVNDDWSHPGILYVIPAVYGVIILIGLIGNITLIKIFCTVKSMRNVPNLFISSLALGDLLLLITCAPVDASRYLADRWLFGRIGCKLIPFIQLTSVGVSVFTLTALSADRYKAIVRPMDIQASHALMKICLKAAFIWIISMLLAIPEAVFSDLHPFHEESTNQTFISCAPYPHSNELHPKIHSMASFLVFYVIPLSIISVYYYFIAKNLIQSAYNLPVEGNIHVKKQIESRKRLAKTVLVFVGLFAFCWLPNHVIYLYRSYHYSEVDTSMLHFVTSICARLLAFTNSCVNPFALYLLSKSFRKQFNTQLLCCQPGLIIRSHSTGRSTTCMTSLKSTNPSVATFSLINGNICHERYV
Method: (§1) Using [^125I-Tyr^4] BN as a GRP receptor preferring ligand, the IC50 values of the ^natCu/^natIn-labeled peptides were measured by in vitro autoradiography of sections of human prostate cancer tissue overexpressing GRP receptors or mouse pancreas tissue expressing mouse GRP receptors. The prostate cancer tissues originated from samples investigated previously or collected prospectively at the Institute of Pathology of the University of Berne in accordance with international ethical guidelines, including informed written consent and approval by the institutional review board. The binding affinity profile of [Cu^II]-BZH7 for three bombesin receptor subtypes was determined by using [^125I-D-Tyr^6, βAla^11, Phe^13, Nle^14] BN(6–14) as an universal radioligand. The procedures were described in detail previously.
(§2) Competitive binding assays were performed with human GRP receptor-positive cancerous tissue and mouse pancreas tissue (expressing mouse GRP receptor) using [^125I-Tyr^4]bombesin as radioligand. Table 2 summarizes the binding affinities of the metallopeptides to GRP receptors of mouse and human origin.

mouse GRP receptor = target: T2, mouse GRP receptor (Mus musculus, UniProt P21729); assay: Competitive binding vs [^125I-Tyr^4] BN, autoradiography of mouse pancreas tissue sections; conditions: displacement of [^125I-Tyr^4] BN, ± SD, number of independent studies in brackets
T2 construct: mouse pancreas tissue (expressing mouse GRP receptor); from tissue; host or cells: mouse pancreas tissue sections
T2 sequence (P21729 whole entry): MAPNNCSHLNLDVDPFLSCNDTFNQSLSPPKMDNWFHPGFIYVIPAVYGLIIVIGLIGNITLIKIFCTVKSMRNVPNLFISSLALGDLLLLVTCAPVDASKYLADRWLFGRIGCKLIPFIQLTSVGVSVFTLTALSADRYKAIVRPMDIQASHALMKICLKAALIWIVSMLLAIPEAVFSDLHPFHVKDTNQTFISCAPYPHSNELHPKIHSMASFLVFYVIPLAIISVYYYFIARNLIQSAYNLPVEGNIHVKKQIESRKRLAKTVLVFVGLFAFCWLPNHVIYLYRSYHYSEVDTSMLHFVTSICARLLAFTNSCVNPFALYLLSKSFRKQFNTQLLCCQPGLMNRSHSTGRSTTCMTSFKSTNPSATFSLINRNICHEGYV
Method: as §1, §2

BNRS-3 [1] = target: T3, BNRS-3 (Homo sapiens, UniProt P32247); assay: BN receptor subtype profile with universal radioligand [^125I-D-Tyr^6, βAla^11, Phe^13, Nle^14] BN(6–14), human cancerous tissues; conditions: human cancerous tissue, read-out: binding affinity to BNRS-3
T3 construct: from tissue
T3 sequence (P32247 1-399): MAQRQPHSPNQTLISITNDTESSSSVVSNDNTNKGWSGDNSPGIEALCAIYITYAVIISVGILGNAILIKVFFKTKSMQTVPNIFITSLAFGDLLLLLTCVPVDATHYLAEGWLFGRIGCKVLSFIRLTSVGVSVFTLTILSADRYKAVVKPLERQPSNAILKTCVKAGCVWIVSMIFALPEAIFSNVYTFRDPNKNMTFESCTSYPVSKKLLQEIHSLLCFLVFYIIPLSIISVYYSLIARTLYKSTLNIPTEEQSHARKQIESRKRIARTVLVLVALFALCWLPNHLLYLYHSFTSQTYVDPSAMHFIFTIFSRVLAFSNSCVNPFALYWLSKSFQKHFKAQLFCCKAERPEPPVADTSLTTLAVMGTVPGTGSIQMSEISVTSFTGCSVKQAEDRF
Method: as §1
(§3) The most promising peptide, Cu-BZH7, was also studied with respect to BN receptor subtype profiles using human cancerous tissues shown to express predominantly a single bombesin receptor subtype.

GRP-R [2] = target: T4, GRP-R (Homo sapiens, UniProt P30550); assay: as above; conditions: human cancerous tissue, read-out: binding affinity to GRP-R
T4 construct: from tissue
T4 sequence (P30550 whole entry): as the sequence (P30550 whole entry) above
Method: as §1, §3

NMB-R [3] = target: T5, NMB-R (Homo sapiens, UniProt P28336); assay: as above; conditions: human cancerous tissue, read-out: binding affinity to NMB-R
T5 construct: from tissue
T5 sequence (P28336 whole entry): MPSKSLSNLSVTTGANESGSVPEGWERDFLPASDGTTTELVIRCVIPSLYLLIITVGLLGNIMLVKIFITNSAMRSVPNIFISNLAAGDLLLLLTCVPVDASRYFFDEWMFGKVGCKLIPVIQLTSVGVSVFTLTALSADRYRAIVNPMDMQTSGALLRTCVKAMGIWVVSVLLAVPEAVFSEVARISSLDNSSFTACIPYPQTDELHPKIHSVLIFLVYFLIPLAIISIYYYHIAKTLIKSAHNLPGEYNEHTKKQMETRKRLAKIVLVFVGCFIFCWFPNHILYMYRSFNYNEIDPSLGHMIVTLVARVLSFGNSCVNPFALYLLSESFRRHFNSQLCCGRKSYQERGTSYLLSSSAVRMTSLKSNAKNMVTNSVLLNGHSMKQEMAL
Method: as §1, §3

NMB-R [4] = conditions: read-out: affinity to NMB-R; cited from earlier work
GRP-R [5] = conditions: read-out: affinity to GRP-R; cited from earlier work
BNRS-3 [6] = conditions: read-out: affinity to BNRS-3; cited from earlier work
PC-3 cells = assay: Composition of radioactivity externalized from PC-3 cells (metabolites); format: cell-based, human
Method: To identify the composition of the externalized peptides, [^111In]-BZH4 (^111In-DOTA-GABA-D-Tyr-Gln-Trp-Ala-Val-βAla-His-Leu-Nle-NH2) was used as a surrogate peptide with high specific activity, required for metabolic studies. Upon 2 h of internalization and acid wash, the externalized radioactivity after 2 h incubation already consisted of approximately 84% metabolites (^111In-DOTA: 14%; ^111In-DOTA-GABA-D-Tyr-Gln: main peak, 64%; ^111In-DOTA-GABA-D-Tyr-Gln-Trp-Ala-Val-βAla: 6%) and 16% intact peptide.

[7] = 2 h internalization, acid wash, 2 h incubation

Molecule: Cu^II-CPTA -[D-Tyr^6, βAla^11, Nle^14] BN(6–14) [[Cu^II]-BZH5]
IC50 (human GRP receptor): 3.2 ± 0.5 nM | IC50 (mouse GRP receptor): 0.6 ± 0.2 nM

IC50 (BNRS-3 [1]): 1.4 ± 0.6 nM | IC50 (GRP-R [2]): 0.3 ± 0.07 nM | IC50 (NMB-R [3]): 0.27 ± 0.16 nM
Molecule: CSCC[C@H](NC(=O)[C@H](CC(C)C)NC(=O)[C@H](Cc1c[nH]cn1)NC(=O)CCNC(=O)[C@@H](NC(=O)[C@H](C)NC(=O)[C@H](Cc1c[nH]c2ccccc12)NC(=O)[C@H](CCC(N)=O)NC(=O)c1ccc(CN2CCCNCCNCCCNCC2)cc1)C(C)C)C(N)=O [[Cu^II]-BZH7, Cu^II-CPTA-[βAla^11] BN(7–14)]

Molecule: DOTA-PEG4-BN(7–14) [[^natGa/^natLu]-DOTA-PESIN]
IC50 (NMB-R [4]): 12.5 nM | IC50 (GRP-R [5]): 10 nM | IC50 (BNRS-3 [6]): > 1000 nM

Molecule: Cu^II-CPTA-[D-Tyr^6, βAla^11] BN(6–14) ({CPTA}-[dY]QWAV[βAla]HLM-NH2; also: Cu(II) complex of CPTA) [[Cu^II]-BZH6]
IC50 (human GRP receptor): 1 ± 0.2 nM | IC50 (mouse GRP receptor): 0.8 ± 0.2 nM

Molecule: [(N4-Bzdig)^0] BN (7–14)
IC50 (NMB-R [4]): 0.65 nM | IC50 (GRP-R [5]): 0.9 nM | IC50 (BNRS-3 [6]): 37 nM

Molecule: CCCC[C@H](NC(=O)[C@H](CC(C)C)NC(=O)[C@H](Cc1c[nH]cn1)NC(=O)CCNC(=O)[C@@H](NC(=O)[C@H](C)NC(=O)[C@H](Cc1c[nH]c2ccccc12)NC(=O)[C@H](CCC(N)=O)NC(=O)[C@@H](Cc1ccc(O)cc1)NC(=O)CCCNC(=O)CN1CCN(CC(=O)O)CCN(CC(=O)O)CCN(CC(=O)O)CC1)C(C)C)C(N)=O [[^111In]-BZH4, ^111In-DOTA-GABA-D-Tyr-Gln-Trp-Ala-Val-βAla-His-Leu-Nle-NH2, metal not drawn] ({DOTA-GABA}-[dY]QWAV[βAla]HL[Nle]-NH2)
externalized radioactivity: ^111In-DOTA (PC-3 cells): 14% | externalized radioactivity: metabolites (total) (PC-3 cells): approximately 84% | externalized radioactivity: ^111In-DOTA-GABA-D-Tyr-Gln (main peak) (PC-3 cells; [7]): 64% | externalized radioactivity: ^111In-DOTA-GABA-D-Tyr-Gln-Trp-Ala-Val-βAla (PC-3 cells; [7]): 6%

Molecule: In^III-DOTA-GABA-[D-Tyr^6, βAla^11, Nle^14] BN(6–14) [[In^III]-BZH4]
IC50 (human GRP receptor): 41.5 ± 2.5 nM | IC50 (mouse GRP receptor): 0.8 ± 0.4 nM

IC50 (human GRP receptor): 1.8 ± 0.6 nM | IC50 (mouse GRP receptor): 0.8 ± 0.2 nM
Molecule: Cu^II-CPTA-[Gly^6, βAla^11] BN(6–14) [[Cu^II]-BZH8]

Molecule: CCCC[C@H](NC(=O)[C@H](CC(C)C)NC(=O)[C@H](Cc1c[nH]cn1)NC(=O)CCNC(=O)[C@@H](NC(=O)[C@H](C)NC(=O)[C@H](Cc1c[nH]c2ccccc12)NC(=O)[C@H](CCC(N)=O)NC(=O)[C@@H](Cc1ccc(O)cc1)NC(=O)CCCNC(=O)CN1CCN(CC(=O)O)CCN(CC(=O)O)CCN(CC(=O)O)CC1)C(C)C)C(N)=O [[Cu^II]-BZH4, Cu^II-DOTA-GABA-[D-Tyr^6, βAla^11, Nle^14] BN(6–14)] ({DOTA-GABA}-[dY]QWAV[βAla]HL[Nle]-NH2)
IC50 (human GRP receptor): 26.3 ± 3.5 nM | IC50 (mouse GRP receptor): 1.1 ± 0.3 nM
